The record followed here is ChEMBL document CHEMBL1136266, “beta-Homolysine oligomers: a new class of Trojan carriers” (Bioorg Med Chem Lett, 2003).

Type in all cases: functional, cell-based
Holding throughout (conditions): Homo sapiens

Test [1] has as its system DU-145. Briefly: Cellular uptake of compound into DU145 tumor cells by laser scanning cytometry at a concentration of 0.1 uM.
Test [2] concerns DU-145. Briefly: Cellular uptake of compound into DU145 tumor cells by laser scanning cytometry at a concentration of 1 uM.
In test [3] the test system is DU-145. Put plainly: Cellular uptake of compound into DU145 tumor cells by laser scanning cytometry at a concentration of 10 uM.
The test system of test [4] is HCT-15. Briefly: Cellular uptake of compound into HCT15 tumor cells by laser scanning cytometry at a concentration of 10 uM.
Test [5] concerns HCT-15. Put plainly: Cellular uptake of compound into HCT15 tumor cells by laser scanning cytometry at a concentration of 0.1 uM.
The test system of test [6] is HCT-15. Briefly: Cellular uptake of compound into HCT15 tumor cells by laser scanning cytometry at a concentration of 1 uM.

Regarding `NCCCCC(CC(N)=O)NC(=O)CC(CCCCN)NC(=O)CC(CCCCN)NC(=O)CC(CCCCN)NC(=O)CC(CCCCN)NC(=O)CC(CCCCN)NC(=O)CC(CCCCN)NC(=O)CC(CCCCN)NC(=O)COCCOCCNC(=O)c1ccccc1C1c2ccc(O)cc2Oc2cc(O)ccc21` (stereo not given), the Uptake in the test with DU-145 [1] stood at 98.5%; with DU-145 [2], 98.9%; in the test with DU-145 [3], 89.5%; with HCT-15 [4], 99.9%; in the test on HCT-15 [5], 99.5%; in the test on HCT-15 [6], 99.9%.

Regarding `O=C1OC2(c3ccc(O)cc3Oc3cc(O)ccc32)c2ccccc21`, the Uptake was 0.1% in the test on DU-145 [1]; 0.8% in the test with DU-145 [2]; 0.3% with DU-145 [3]; 0.7% in the test with HCT-15 [4]; 0.3% with HCT-15 [5]; 1.1% in the test on HCT-15 [6].

Take `NCCCCC(CC(N)=O)NC(=O)CC(CCCCN)NC(=O)CC(CCCCN)NC(=O)CC(CCCCN)NC(=O)CC(CCCCN)NC(=O)CC(CCCCN)NC(=O)COCCOCCNC(=O)c1ccccc1C1c2ccc(O)cc2Oc2cc(O)ccc21` (stereo not given): the Uptake turned out to be 40.4% in the test with DU-145 [1]; 69.5% with DU-145 [2]; 94.9% in the test on DU-145 [3]; 99.6% in the test on HCT-15 [4]; 99.9% with HCT-15 [5]; 99.7% in the test with HCT-15 [6].

For `NCCCCC(CC(N)=O)NC(=O)CC(CCCCN)NC(=O)CC(CCCCN)NC(=O)CC(CCCCN)NC(=O)CC(CCCCN)NC(=O)COCCOCCNC(=O)c1ccccc1C1c2ccc(O)cc2Oc2cc(O)ccc21` (stereo not given), the Uptake with DU-145 [1] turned out to be 71.9%; in the test on DU-145 [2], 76.5%; in the test on DU-145 [3] it was 97.8%; with HCT-15 [4], 99.8%; with HCT-15 [5], 99.8%; with HCT-15 [6] it was 99.6%.

Take `NCCCCC(CC(N)=O)NC(=O)CC(CCCCN)NC(=O)CC(CCCCN)NC(=O)CC(CCCCN)NC(=O)CC(CCCCN)NC(=O)CC(CCCCN)NC(=O)CC(CCCCN)NC(=O)COCCOCCNC(=O)c1ccccc1C1c2ccc(O)cc2Oc2cc(O)ccc21` (stereo not given): the Uptake in the test on DU-145 [1] is 92.5%; with DU-145 [2], 85.8%; in the test with DU-145 [3], 98.8%; in the test with HCT-15 [4], 99.8%; in the test with HCT-15 [5], 99.9%; in the test on HCT-15 [6], 99.8%.
